# Measurements reported in article PMC11066876, “Late-Stage Saturation of Drug Molecules” (Journal of the American Chemical Society, 2024).
# Assays:
# [1] = High-throughput (direct-to-biology) human liver microsomal stability assay; settings: for %Change After 60 min: %remaining after LSS minus before LSS at 60 min; for remaining at 0 h, 105 µM / remaining at 0.25 h, 105 µM / remaining at 0.5 h, 105 µM / remaining at 1 h, 105 µM / half-life at 105 µM: both, human, microsomes, pH 7.4
# [2] = Measurement of LogPo/w (n-octanol/water, RP-HPLC); format: physicochemical; settings: n = 3; for logP at 24 h: measured n-octanol-water partition coefficient, 30 °C; for C(oil): n-octanol phase; for C(oil) / C(aqueous): n-octanol/water 1:1, 30 °C, 24 h; for C(aqueous): water phase
# [3] = Metabolic stability in human liver microsomes (Pharmaron); settings: for CLint scaled at 1 µM / microsomal CLint at 1 µM / half-life at 1 µM: both, microsomes; for CLint scaled at 1 µM / microsomal CLint at 1 µM / half-life at 1 µM / Hepatic Extraction Ratio (ER) / Predicted Hepatic CLH: human; for Remaining Percentage 0.5 min / Remaining Percentage 5 min / Remaining Percentage 15 min / Remaining Percentage 30 min: human liver microsomes 0.5 mg/mL, +Cofactors (NADPH), 1 μM; for Predicted Hepatic CLH: QH 21 mL/min/kg, fub assumed 1
# SARS-CoV M^pro = settings: Figure 1B; cited from earlier work
# [4] = design: method as in PMID 23701517; settings: aqueous solubility, Figure 1B; cited from earlier work
# [5] = design: method as in PMID 23701517; settings: Figure 1B; cited from earlier work
# [6] = Traditional t1/2, human liver microsomes, Figure 6B
# [7] = in vitro t1/2, human liver microsomes, Table S21
Compound,%Change After 60 min ([1]; human liver microsomes) [%],"remaining at 0 h, 105 µM [1] [%]","remaining at 0.25 h, 105 µM [1] [%]","remaining at 0.5 h, 105 µM [1] [%]","remaining at 1 h, 105 µM [1] [%]",logP at 24 h [2],C(oil) [2] [mg/mL],C(aqueous) [2] [mg/mL],other results
Nc1c2ccccc2nc2ccccc12 [Aminacrine],-12.39,100,83.7,75.1,66.2,,,,
COC(=O)N[C@H](C(=O)N[C@@H](Cc1ccccc1)[C@@H](O)CN(Cc1ccc(-c2ccccn2)cc1)NC(=O)[C@@H](NC(=O)OC)C(C)(C)C)C(C)(C)C [Atazanavir],-5.37,100,84.7,72.9,65.3,,,,
CC(Cc1cccc(C(F)(F)F)c1)NCCOC(=O)c1ccccc1 (stereo not drawn) [Benfluorex],,100,,,,,,,
CN(Cc1ccc(C(C)(C)C)cc1)Cc1cccc2ccccc12 [Butenafine],-2.69,100,97.8,95.6,94.9,,,,
C[C@@H](NCCCc1cccc(C(F)(F)F)c1)c1cccc2ccccc12 [Cinacalcet],-1.7,100,67.4,49,35.4,4.61,8.962,0.0002,"CLint scaled at 1 µM [3]: 67.4 mL/min/kg; microsomal CLint at 1 µM [3]: 65.6 µL/min/mg; half-life at 1 µM [3, 6]: 21.1 min; half-life at 1 µM [3, 7]: 21.1 min; Hepatic Extraction Ratio (ER) [3]: 0.76; Remaining Percentage 0.5 min [3]: 100.00%; Remaining Percentage 5 min [3]: 80.88%; Remaining Percentage 15 min [3]: 55.07%; Remaining Percentage 30 min [3]: 37.55%; Predicted Hepatic CLH [3]: 16.01 mL/min/kg; half-life at 105 µM [1]: 35.4 min"
CCN(CC)C(=O)c1cccc(C)c1 [Diethyltoluamide],0.82,100,89,81.7,75.5,,,,
CC(C(=O)O)c1ccc(-c2ccccc2)c(F)c1 (stereo not drawn) [Flurbiprofen],7.13,100,50.1,25.1,9.28,1.14,1.858,0.135,
CC(C(=O)O)c1ccc(N2Cc3ccccc3C2=O)cc1 (stereo not drawn) [Indoprofen],-14.04,100,97.6,99,102,1.02,0.943,0.091,
"COc1ccc2cc(CCC(C)=O)ccc2c1 [Nabumetone, nabumetone]",5.23,100,58,40.7,21.7,,,,
COc1ccccc1N1CCN(CC(O)COc2cccc3ccccc23)CC1 (stereo not drawn) [Naftopidil],-25.63,100,72.2,58.9,47,2.04,1.697,0.016,
"O=C(C1CCCCC1)N1CC(=O)N2CCc3ccccc3C2C1 (stereo not drawn) [Praziquantel, praziquantel]",-15.26,,,31.8,15.3,,,,
CCCNC(C)C(=O)Nc1ccccc1C (stereo not drawn) [Prilocaine],-13.77,100,86,75,67.4,1.02,1.306,0.124,
CCC1(c2ccccc2)C(=O)NCNC1=O [Primidone],2.16,100,71,43.6,27.8,,,,
CC(C)NCC(O)COc1cccc2ccccc12 (stereo not drawn) [Propranolol],,,,,,,2.871,0.015,
CCOC(=O)[C@H](C)C[C@@H](Cc1ccc(-c2ccccc2)cc1)NC(=O)CCC(=O)O [Sacubitril],-1.91,100,60.2,34,22.6,1.47,1.368,0.047,
CCN(Cc1ccncc1)C(=O)C(CO)c1ccccc1 (stereo not drawn) [Tropicamide],-2.61,100,95.2,91.9,88.1,,,,
O=C(/C=C/c1ccccc1)N[C@@H](Cc1ccccc1)C(=O)N[C@@H](C[C@@H]1CCNC1=O)C(=O)C(=O)NCc1ccccc1 [compound 1],,,,,,,,,IC50 (SARS-CoV M^pro): 1950 nM
O=C(/C=C/c1ccccc1)N[C@@H](CC1CCCCC1)C(=O)N[C@@H](C[C@@H]1CCNC1=O)C(=O)C(=O)NCc1ccccc1 [compound 2],,,,,,,,,IC50 (SARS-CoV M^pro): 710 nM
CC1(C)OC(=O)N(c2ccc(C(=O)Nc3cccc4cccnc34)cc2)[C@H]1c1ccccc1 [compound 3],,,,,,,,,Solubility [4]: 5 µg/mL; Plasma stability (t1/2) [5]: 312 min
CC1(C)OC(=O)N([C@H]2CC[C@H](C(=O)Nc3cccc4cccnc34)CC2)[C@H]1c1ccccc1 [compound 4],,,,,,,,,Plasma stability (t1/2) [5]: > 500 min
CCCNC(C)C(=O)NC1CCCCC1C (stereo not drawn) [compound 15],,,,,,1.39,1.569,0.064,
CC(C)NCC(O)COC1CCCC2CCCCC21 (stereo not drawn) [compound 23],,,,,,2.62,2.697,0.007,
CC(C(=O)O)c1ccc(C2CCCCC2)c(F)c1 (stereo not drawn) [compound 27],,,,,,1.54,2.453,0.071,"microsomal stability upon saturation ([1]; human liver microsomes, saturated congener versus parent drug, in words): increase in stability"
COc1ccccc1N1CCN(CC(O)COc2cccc3c2CCCC3)CC1 (stereo not drawn) [compound 28],,,,,,2.1,1.761,0.014,
CC(C(=O)O)c1ccc(N2C[C@H]3CCCC[C@H]3C2=O)cc1 (stereo partly drawn) [compound 37],,,,,,0.813,0.897,0.138,
C[C@@H](NCCCc1cccc(C(F)(F)F)c1)c1cccc2c1CCCC2 [compound 39],,,,,,4.79,9.541,0.0001,"CLint scaled at 1 µM [3]: 68 mL/min/kg; microsomal CLint at 1 µM [3]: 66.2 µL/min/mg; half-life at 1 µM [3, 6]: 21 min; half-life at 1 µM [3, 7]: 21 min; Hepatic Extraction Ratio (ER) [3]: 0.76; Remaining Percentage 0.5 min [3]: 100.00%; Remaining Percentage 5 min [3]: 85.98%; Remaining Percentage 15 min [3]: 57.81%; Remaining Percentage 30 min [3]: 38.01%; Predicted Hepatic CLH [3]: 16.05 mL/min/kg; half-life at 105 µM [1]: 33.7 min"
CCOC(=O)[C@H](C)C[C@@H](Cc1ccc(C2CCCCC2)cc1)NC(=O)CCC(=O)O [compound 70],,,,,,1.39,0.737,0.030,
